Here are results for one compound from ChEMBL document CHEMBL5233201, “Progress in mechanistically novel treatments for schizophrenia” (RSC Med Chem, 2021).

The target in the test is High affinity cGMP-specific 3',5'-cyclic phosphodiesterase 9A (Homo sapiens, UniProt O76083). The test can be described thus: Inhibition of human PDE9A expressed in Escherichia coli DH10 by scintillation proximity assay.
High affinity cGMP-specific 3',5'-cyclic phosphodiesterase 9A, sequence (O76083 whole entry): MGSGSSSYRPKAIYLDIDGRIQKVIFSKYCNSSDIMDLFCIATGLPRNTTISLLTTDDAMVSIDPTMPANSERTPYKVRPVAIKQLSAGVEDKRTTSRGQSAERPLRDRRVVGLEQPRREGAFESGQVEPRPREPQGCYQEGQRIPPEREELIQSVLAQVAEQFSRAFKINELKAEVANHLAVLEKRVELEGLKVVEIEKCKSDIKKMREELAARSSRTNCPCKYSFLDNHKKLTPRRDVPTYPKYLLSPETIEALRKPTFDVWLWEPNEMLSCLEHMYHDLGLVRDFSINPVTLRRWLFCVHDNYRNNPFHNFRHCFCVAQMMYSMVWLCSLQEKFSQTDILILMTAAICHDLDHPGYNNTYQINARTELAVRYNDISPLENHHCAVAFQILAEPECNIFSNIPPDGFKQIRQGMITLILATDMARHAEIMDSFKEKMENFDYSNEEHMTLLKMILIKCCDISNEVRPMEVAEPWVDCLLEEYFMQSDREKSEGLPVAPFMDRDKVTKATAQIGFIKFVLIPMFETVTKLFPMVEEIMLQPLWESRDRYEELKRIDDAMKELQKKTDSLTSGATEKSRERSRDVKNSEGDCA

Compound `O=c1[nH]c(Cc2ccccn2)nc2c1cnn2C1CCOCC1` [OSORESNONTRINE] displayed an IC50 of 0.065 µM.
